Experiments:
[1] = Shake-flask n-octanol/water logDpH7.4 with HPLC-UV; type: physicochemical; conditions: octanol / 0.01 M phosphate buffer pH 7.4, 25 °C
Procedure: LogDpH7.4 values of the three APIs were determined at Pion Inc (UK) Ltd. (Forest Row, UK) using a shake-flask screening method and high performance liquid chromatography with UV detection (HPLC-UV). Samples containing the API were equilibrated between octanol-saturated 0.01 M phosphate buffer at pH 7.4 and buffer-saturated octanol and analyzed by HPLC-UV. The experimental details are provided in Supplementary Materials. Measured logDpH7.4 values are presented as means (±SD) and were compared to literature values as well as in silico predictions using the software ADMET Predictor version 9 and ACD/Labs Release 2021.1.2. […]
version 9 (Simulations Plus Inc., Lancaster, CA, USA) and ACD/ Labs Release 2021.1.2 (Advanced Chemistry Devel opment Inc., Toronto, Canada) with the molecular structure as input.
S.2.3. n‐Octanol/Water Distribution Coefficient (logDpH7.4) […]
screening method and HPLC analysis. Samples (n = 3) were prepared by addition of a 10 mM API stock solution in DMSO to an oct anol saturated 0.01 M phosphate buffer at pH 7.4 to prepare a 1:10 dilution (ionic strength adjusted with 0.15 M NaCl). Buffer saturated octanol was added (1:1) to prepare pa rtiti on systems, which were agitated on an electronic shake pla te for 4 h at 25 ± 2°C. All samples were centrifuged, and aqueous and octanol layers were separately transferred to 96 well plat es. Both layers of each replicate were analyzed with a standard HPLC gradient method (Table S3). A Waters Acquity H‐Class Plus System consisting of a sample manager, a quaternary solvent manager and a photodiode array (PDA) detector was used. All HPLC data was collected and processed using the software Empower® version 3.0. Measured logDpH7.4 values are presented as means with standard deviation and were compared to literature va lu es and predictions using the software ADMET Predictor version 9 and ACD/Labs Release 2021.1.2 wit h the molecular structure as input.
Table S3. Standard HP LC method for the determination of logDpH7.4 values.
System Waters Acquity H‐Class Plus System […]

Caco-2 cells = test: Caco-2 permeability assay (pH 6.5/7.4 gradient, ± elacridar)
Procedure: In vitro permeability studies were performed at Cyprotex Discovery Ltd. (Macclesfield, UK) using a high-throughput Caco-2 permeability assay. Permeability at 37 °C was assessed from the apical to basolateral side (A⟹B) and in opposite direction (B⟹A) applying a pH gradient with pH 6.5 in the apical and pH 7.4 in the basolateral compartment (Hanks Balanced Salt Solution, HBSS). After an incubation of 120 min, samples were diluted for analysis via liquid chromatography coupled with tandem mass spectrometry (LC-MS/MS). […] Experiments were performed in absence and presence of the P-glycoprotein (P-gp) inhibitor elacridar (10 µM) to study transporter-mediated efflux effects. The dosing solutions contained the API (10 µM) in HBSS, and DMSO in a concentration of ≤1% v/v. Lucifer yellow (100 µM) was included as fluorescent integrity marker. Further experimental details are provided in Supplementary Materials.
The apparent permeability coefficients (Papp) were calculated according to Equation (27):(27) Papp=dQ/dt/C0·A where dQ/dt is the permeation rate of the API across the cell monolayer, C0 is the starting concentration of the API in the dosing solution and A is the surface area of the cell monolayer. The efflux ratios (ERs) were calculated from the B⟹A and A⟹B Papp values to estimate whether P-gp mediated efflux was involved in the transport of the APIs. The mass balance (% recovery) was calculated from the sum of the API recovered from the acceptor and donor compartments at the end of the experiment, divided by the initial donor amount.
Table S6. Gradient of the UPLC method for analysis of lemborexant.
Table S7. Gradient of the UPLC method for analysis of istradefylline.
S.2.5. rDCS Standard Investigations: Caco‐2 permeability studies
Caco‐2 cells were obtained from the American Type Culture Collection (ATCC, Manassas, VA, USA) and used between passage numbers 40 to 60. The cells were seeded onto Millipore Multiscreen Transwell plates at a density of 1 x 10^5 cells/cm2 and cultured in Dulbeccoʹs Modified Eagleʹs Medium (DMEM). The medium was changed every two or three days. Ce l l culture was carried out at 37 °C in an atmosphere of 5 % CO2 with a relative humidity of 95 %. The permeability assay was performed on day 20.
In vitro permeability was assessed wit h a high‐throughput Caco‐2 permeability assay. The assay was prepared by rinsing apical and basolateral monolayer surfaces twice with Hanks Balanced Salt Solution (HBSS) at the desired pH and 37 °C. Subsequently, cells in the apical and basolateral compartments were incubated with HBSS at the desired pH for 40 min. A pH gradient with pH 6.5 in the apical compartment and pH 7.4 in the basolateral compartment was applied. Dosing solutions containing the API (10 μ M) were prepared by diluting a concentrated API solution in DMS O with HBSS. The final DMSO concentration was ≤ 1% v/v. Lucifer yellow (100 μM) was included in the dosing solution as fluorescent integrity marker. For the assessment of the permeability from the apical to basolateral side (A⟹B), HBSS in the apical compartment was replaced with the dosing solution. The apical inserts were placed into a companion plat e containing fresh buffer with 1% v/ v DMSO. For the assessment of the permeability from the basolateral to […]
apical side (B⟹A), HBSS was removed from the companion plate and replaced with the solution of drug in HBSS. Fresh HBSS was added to the apical insert, which was then placed into the companion plate.
Experiments were performed in absence and presence of the P‐glycoprotein (P‐gp) inhibitor elacridar (10 μM) to study transporter‐mediated efflux effects. In those experiments, elacridar was included in both compartments during the equilibration time and assay. The starting concentration (C0) was confirmed by sampling from the dosing solution immediately before dosing into the cell pl ates. After incubation of 120 minutes, the apical inserts and companion plates were separated for sampling from both compartments.

[2] = rDCS standard investigations: D/S ratio, SLAD and rDCS classification
Procedure: rDCS analysis was performed as described by Rosenberger et al.. […] The An can be calculated according to Equation (30):(30) An=DF·Peff/Rsi·Tsi
The rDCS classification according to the standard investigations was based on the D/S ratios, Peff and SLAD.

[3] = method not disclosed; cited from earlier work
[4] = cited from earlier work
[5] = human mass-balance study, 10 mg [14C]lemborexant
[6] = healthy male subjects, oral suspension 40 mg [14C]istradefylline

| Structure (SMILES) | logD at 4 h [1] | permeability assessment (Caco-2 cells; against antipyrine, propranolol and atenolol as comparators) | SLAD (solubility-limited absorbable dose) [2] [mg] | Literature logP [3] | median tmax ([4]; healthy adults, single oral doses 1 to 10 mg) | dose recovered unchanged in feces [4, 5] | fraction of oral dose absorbed (Fa) [4, 5] [%] | exposure versus dose ([4]; range 1 to 10 mg) | permeability assessment (Caco-2 cells; Caco-2) | oral bioavailability ([4]; healthy volunteers, 200 mg or 400 mg oral) [%] | exposure (AUC and Cmax) versus dose ([4]; high single oral doses of 800, 1200 and 1600 mg) | administered radioactivity recovered in feces [4, 6] [%] | administered radioactivity recovered in urine [4, 6] [%] |
| --- | --- | --- | --- | --- | --- | --- | --- | --- | --- | --- | --- | --- | --- |
| Cc1ncc(OC[C@@]2(c3cccc(F)c3)C[C@H]2C(=O)Nc2ccc(F)cn2)c(C)n1 [Lemborexant, lemborexant] | 3.04 ± 0.05 | highly permeable | 49.6 | 3.70 [33] | approximately 1 h | about 13% | 87 | increase in a dose-proportional manner |  |  |  |  |  |
| C[C@@H](c1ncncc1F)[C@](O)(Cn1cncn1)c1ccc(F)cc1F [Voriconazole, voriconazole] | 1.66 ± 0.03 |  | 1810 | 1.80 [32] |  |  |  |  | high permeability | ≥ 85 | increased proportionally with dose |  |  |
| CCn1c(=O)c2c(nc(/C=C/c3ccc(OC)c(OC)c3)n2C)n(CC)c1=O [Istradefylline, istradefylline] | 2.96 ± 0.03 |  | 8.50 |  |  |  |  |  |  |  |  | 48.0 ± 13.4 | 38.9 ± 10.7 |

— article PMC10385664, “Projection of Target Drug Particle Size in Oral Formulations Using the Refined Developability Classification System (rDCS)” (Pharmaceutics, 2023)
